Source: patent publication US8809321B2, “Diaryl ether linked pyrrolo [2,1-c][1,4] benzodiazepine hybrids and process for the preparation thereof” (Council of Scientific and Industrial Research, priority 2011, dated 2014)
Like-named read-outs stand apart in the source and are kept apart here.

Tests used:
[1] = tested on: A2780 ovarian cancer cell line; experiment: MTT assay, 48 h continuous drug exposure, A2780; type: cell-based, human; settings: read-out: GI50 A2780
Experimental: (§1) For each compound, dose response curves for each cell line were measured at a minimum of five concentrations at 10 fold dilutions. A protocol of 48 h continuous drug exposure was used and a MTT assay was used to estimate cell viability or growth. The percent of cell growth (GI50) compared with the control was calculated.

[2] = tested on: duplex-form calf thymus DNA (CT-DNA); experiment: Thermal denaturation studies with calf thymus DNA (DNA binding affinity); settings: [PBD]:[DNA] molar ratio 1:5, CT-DNA 100 μM, ligand 20 μM, sodium phosphate buffer pH 7.00; for (ΔTm ° C.) after incubation at 37° C. for 0 h: 0 h at 37° C.; for (ΔTm ° C.) after incubation at 37° C. for 18 h: 18 h at 37° C.
Experimental: DNA Binding Affinity of Diaryl Ether Linked PBD Hybrids: Compounds have been subjected to thermal denaturation studies with duplex-form calf thymus DNA (CT-DNA) using a modification of a reported procedure (Newman, M. S. Carcinog-compr. Surv. 1976, 1, 203; ([…].; Loy, M.; Hoffman, Carcinog-compr. […] The DNA-PBD solutions have been incubated at 37° C. for 0 and 18 h prior to analysis. […] DNA helix→coil transition temperatures (Tm) have been obtained from the maxima in the d(A260)/dT derivative plots. […] The DNA binding activity for these novel C8-linked diaryl ether PBD hybrids has been examined by thermal denaturation studies using calf thymus (CT) DNA. […] The data for the compounds are included in Table 1 for comparison.

[3] = tested on: PC3 prostrate cancer cell line; experiment: MTT assay, 48 h continuous drug exposure, PC3; type: cell-based, human; settings: read-out: GI50 PC3
Experimental: as §1

[4] = tested on: A549 lung cancer cell line; experiment: MTT assay, 48 h continuous drug exposure, A549; type: cell-based, human
Experimental: (§2) Some of the C8-linked diaryl ether-PBD hybrids have been tested against eleven human tumour cell lines derived from seven cancer types (lung cancer, colon cancer, cervix, ovarian cancer, oral cancer, prostate cancer and breast cancer) as per Tata protocol as shown in Table 2. For each compound, dose response curves for each cell line were measured at a minimum of five concentrations at 10 fold dilutions. A protocol of 48 h continuous drug exposure was used and a MTT assay was used to estimate cell viability or growth. The percent of cell growth (GI50) compared with the control was calculated. Some of the compounds have been evaluated for their in vitro cytotoxicity in eleven cell lines from seven human cancer types. The results are expressed as GI50 determined relative to that of untreated control cells (Table-2).

[5] = tested on: Hop62 lung cancer cell line; experiment: MTT assay, 48 h continuous drug exposure, Hop62; type: cell-based, human; settings: read-out: GI50 Hop62
Experimental: as §1

[6] = tested on: Gurav oral cancer cell line; experiment: MTT assay, 48 h continuous drug exposure, Gurav; type: cell-based, human; settings: read-out: GI50 Gurav
Experimental: as §1

[7] = tested on: SiHa Cervix cancer cell line; experiment: MTT assay, 48 h continuous drug exposure, SiHa; type: cell-based, human; settings: read-out: GI50 SiHa
Experimental: as §1

[8] = tested on: MCF7 breast cancer cell line; experiment: MTT assay, 48 h continuous drug exposure, MCF7; type: cell-based, human
Experimental: as §2

[9] = tested on: DWD oral cancer cell line; experiment: MTT assay, 48 h continuous drug exposure, DWD; type: cell-based, human; settings: read-out: GI50 DWD
Experimental: as §1

[10] = tested on: ZR-751 breast cancer cell line; experiment: MTT assay, 48 h continuous drug exposure, ZR-751; type: cell-based, human; settings: read-out: GI50 ZR-751
Experimental: as §1

[11] = tested on: Colo205 colon cancer cell line; experiment: MTT assay, 48 h continuous drug exposure, Colo205; type: cell-based, human
Experimental: as §2

[12] = ovarian cancer cell line, 48 h exposure, MTT
[13] = prostrate cancer cell line, 48 h exposure, MTT
[14] = lung cancer cell line, 48 h exposure, MTT
[15] = oral cancer cell line, 48 h exposure, MTT
[16] = Cervix cancer cell line, 48 h exposure, MTT
[17] = breast cancer cell line, 48 h exposure, MTT

Row | SMILES | GI50 [1, 12] [µM] | (ΔTm ° C.) after incubation at 37° C. for 0 h [2] [°C] | (ΔTm ° C.) after incubation at 37° C. for 18 h [2] [°C] | GI50 [3, 13] [µM] | GI50 ([4]; 48 h exposure) [µM] | GI50 [5, 14] [µM] | GI50 [6, 15] [µM] | GI50 [7, 16] [µM] | GI50 ([8]; 48 h exposure) [µM] | GI50 [9, 15] [µM] | GI50 [10, 17] [µM] | GI50 ([11]; 48 h exposure) [µM] | also measured
1 | COc1cc2c(cc1OCCCCCOc1ccc(Oc3cc(OC)c(OC)c(OC)c3)c([N+](=O)[O-])c1)N=C[C@@H]1CCCN1C2=O [21c, 7-Methoxy-(8-3-[4-(3,4,5-timethoxyphenoxy)-3-nitrophenoxy]pentyloxy)-(11aS)-1,2,3,11a-tetrahydro-5H-pyrrolo[2,1-c][1,4]benzodiazepin-5-one] | 1.56 | 3.9 | 5.1 | 1.58 | 2.5 | 3.1 | 2.86 | 1.26 | 1.85 | 2.13 | 1.6 | 2.51 | 
2 | COc1cc2c(cc1OCCCCCOc1cccc(Oc3cc(OC)c(OC)c(OC)c3)c1[N+](=O)[O-])N=C[C@@H]1CCCN1C2=O [21g, 7-Methoxy-(8-3-[3-(3,4,5-trimethoxyphenoxy)-2-nitrophenoxy]pentyloxy)-(11aS)-1,2,3,11a-tetrahydro-5H-pyrrolo[2,1-c][1,4]benzodiazepin-5-one] | 2.1 | 4.9 | 6.2 | 0.19 | 2.02 | 2.13 | 0.16 | 2.21 | 2.3 | 0.17 | 0.18 | 0.17 | 
3 | COc1ccc(Oc2ccc(C(=O)N3CCN(CCCCCOc4cc5c(cc4OC)C(=O)N4CCC[C@H]4C=N5)CC3)cc2N)cc1 [22c] | 0.19 | 3.1 | 4.2 | 0.19 | 0.18 | 2.3 | 0.16 | 3.25 | 0.17 | 0.18 | 0.19 | 0.17 | 
4 | COc1ccc(Oc2ccc(C(=O)N3CCN(CCCCCOc4cc5c(cc4OC)C(=O)N4CCC[C@H]4C=N5)CC3)cc2N)cc1OC [23c] | 0.18 | 3.6 | 4.5 | 0.17 | 0.18 | 2.28 | 0.12 | 2.47 | 0.15 | 0.15 | 0.19 | 0.16 | 
5 | COc1cc2c(cc1OCCCCCN1CCN(C(=O)c3ccc(Oc4cc(OC)c(OC)c(OC)c4)c(N)c3)CC1)N=C[C@@H]1CCCN1C2=O [24c] | 2 | 4.5 | 6.0 | 0.17 | 0.17 | 2.26 | 0.15 | 2.5 | 0.17 | 0.16 | 0.18 | 0.54 | 
6 | COc1ccc(Oc2ccc(C(=O)N3CCN(CCCCCOc4cc5c(cc4OC)C(=O)N4CCC[C@H]4C=N5)CC3)cc2[N+](=O)[O-])cc1 [31c] | 0.19 | 3.9 | 5.6 | 0.17 | 0.17 | 0.19 | 0.16 | 3.88 | 0.18 | 0.18 | 0.18 | 0.17 | 
7 | COc1ccc(Oc2ccc(C(=O)N3CCN(CCCCCOc4cc5c(cc4OC)C(=O)N4CCC[C@H]4C=N5)CC3)cc2[N+](=O)[O-])cc1OC [32c] | 0.15 | 4.8 | 7.3 | 0.19 | 0.14 | 0.18 | 0.12 | 1.85 | 0.17 | 0.14 | 0.15 | 0.16 | 
8 | COc1cc2c(cc1OCCCCCN1CCN(C(=O)c3ccc(Oc4cc(OC)c(OC)c(OC)c4)c([N+](=O)[O-])c3)CC1)N=C[C@@H]1CCCN1C2=O [33c] | 2.3 | 4.2 | 6.1 | 2.15 | 2.24 | 2.67 | 0.17 | 2.25 | 0.18 | 2.1 | 2.2 | 0.15 | 
9 | C1=CC2=CN=c3ccccc3=CN2C1 [DC-81, pyrrolo[2,1-c][1,4]benzodiazepine, reference compound] |  | 0.3 | 0.7 |  |  |  |  |  |  |  |  |  | GI50 ([1]; Homo sapiens, A2780, 48 h): 0.15 µM; GI50 ([3]; Homo sapiens, 48 h): 0.17 µM; GI50 ([4]; Homo sapiens, A549, 48 h exposure): 0.16 µM; GI50 ([5]; Homo sapiens, HOP-62, 48 h): 0.17 µM; GI50 ([6]; Homo sapiens, Gurav, 48 h): 1.49 µM; GI50 ([7]; Homo sapiens, SiHa, 48 h): 0.14 µM; GI50 ([8]; Homo sapiens, MCF7, 48 h exposure): 0.17 µM; GI50 ([9]; Homo sapiens, 48 h): 0.2 µM; GI50 ([10]; Homo sapiens, ZR-75-1, 48 h): 0.16 µM; GI50 ([11]; Homo sapiens, COLO 205, 48 h exposure): 0.11 µM
